Data taken from US20040048283A1, “Novel method for screening bacterial transcription modulators” (priority 2000, published 2004).
Entries after “also recorded” stand apart in the source; their conditions may differ.

What was measured:
S epidermidis = assay: inhibition of growth in solid medium (inhibition diameter); assay type: cell-based
Method: (§1) A preculture of the strains E. coli K12, S. aureus and S. epidermis in Mueller Hinton Broth medium (Mueller and Hinton, 1941) is carried out at 37° C., until an optical density of 0.1 at 650 nm is obtained. 100 μl of the preculture is added to 10 ml of the medium: 0.1% agarose, 10 mM sodium phosphate pH 7.4; 0.3 mg/ml trypcase-soy; 100 mM NaCl.
(§2) The mixture is poured into a […] Petri dish. Wells are made in the gelose and 5 μl of the solutions to be tested, containing the screened products, are placed in each well. The dishes are left at ambient temperature for 2 hours, then 10 ml of the medium (1% agarose; 10 mM sodium phosphate—pH 7.4-6% trypcase-soy) are poured into the Petri dish forming an overlay. After solidification, the dishes are incubated overnight at 37° C.
(§3) The antibacterial activity is evaluated by measuring the diameter of the bacterial growth inhibition of the zone at the centre of which the product was placed.

E. coli K12 = assay: as above; assay type: cell-based; details: for diameter of inhibition, K12: solid medium
Method: as §1, §2, §3

S aureus = assay: as above; assay type: cell-based; details: for diameter of inhibition, S aureus: solid medium
Method: as §1, §2, §3

[1] = target: T1, bond between the core enzyme of the RNA polymerase and the protein σ^70 (Escherichia coli, UniProt P0A7Z4+P0A8T7+P0A8V2); assay: sigma70-RNA polymerase bond test (ELISA-type complexation test); assay type: binding, E. coli
T1 construct: made in house
T1 sequence (P0A8T7 whole entry): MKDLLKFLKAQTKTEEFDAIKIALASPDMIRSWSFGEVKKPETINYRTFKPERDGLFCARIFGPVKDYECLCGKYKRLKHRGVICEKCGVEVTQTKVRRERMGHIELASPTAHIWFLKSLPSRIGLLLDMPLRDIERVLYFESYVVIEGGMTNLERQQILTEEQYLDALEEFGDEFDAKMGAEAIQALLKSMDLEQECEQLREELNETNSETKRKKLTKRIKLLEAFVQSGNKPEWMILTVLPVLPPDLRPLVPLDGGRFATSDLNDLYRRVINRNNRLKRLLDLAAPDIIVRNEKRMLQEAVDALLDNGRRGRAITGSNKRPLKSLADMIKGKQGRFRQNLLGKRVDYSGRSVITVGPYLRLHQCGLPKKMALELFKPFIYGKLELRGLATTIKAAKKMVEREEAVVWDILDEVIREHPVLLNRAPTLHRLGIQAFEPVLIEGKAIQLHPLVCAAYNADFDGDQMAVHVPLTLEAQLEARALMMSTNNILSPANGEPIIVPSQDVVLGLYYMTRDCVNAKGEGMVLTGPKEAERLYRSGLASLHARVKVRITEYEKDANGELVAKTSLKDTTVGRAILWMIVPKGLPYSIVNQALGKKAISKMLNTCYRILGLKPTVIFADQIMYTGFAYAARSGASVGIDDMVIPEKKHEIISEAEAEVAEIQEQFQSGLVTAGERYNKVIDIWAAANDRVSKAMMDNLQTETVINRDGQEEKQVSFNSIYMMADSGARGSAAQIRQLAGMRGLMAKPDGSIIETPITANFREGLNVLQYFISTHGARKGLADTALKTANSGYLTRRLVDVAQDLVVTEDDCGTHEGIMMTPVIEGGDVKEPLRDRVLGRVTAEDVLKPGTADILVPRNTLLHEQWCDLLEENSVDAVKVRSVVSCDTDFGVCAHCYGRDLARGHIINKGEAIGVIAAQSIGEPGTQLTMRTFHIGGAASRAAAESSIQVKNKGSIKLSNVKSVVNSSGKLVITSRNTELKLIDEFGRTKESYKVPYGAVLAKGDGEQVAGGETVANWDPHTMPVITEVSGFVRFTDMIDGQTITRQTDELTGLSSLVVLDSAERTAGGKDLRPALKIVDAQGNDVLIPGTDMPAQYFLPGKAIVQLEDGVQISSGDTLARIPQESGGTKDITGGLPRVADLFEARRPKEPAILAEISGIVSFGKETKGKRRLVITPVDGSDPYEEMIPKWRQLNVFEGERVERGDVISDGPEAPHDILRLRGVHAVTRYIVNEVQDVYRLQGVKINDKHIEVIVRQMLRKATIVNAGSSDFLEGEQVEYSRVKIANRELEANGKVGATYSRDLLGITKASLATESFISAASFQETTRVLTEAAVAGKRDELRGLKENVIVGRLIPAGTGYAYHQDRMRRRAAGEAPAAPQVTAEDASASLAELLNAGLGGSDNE
T1 sequence (P0A8V2 whole entry): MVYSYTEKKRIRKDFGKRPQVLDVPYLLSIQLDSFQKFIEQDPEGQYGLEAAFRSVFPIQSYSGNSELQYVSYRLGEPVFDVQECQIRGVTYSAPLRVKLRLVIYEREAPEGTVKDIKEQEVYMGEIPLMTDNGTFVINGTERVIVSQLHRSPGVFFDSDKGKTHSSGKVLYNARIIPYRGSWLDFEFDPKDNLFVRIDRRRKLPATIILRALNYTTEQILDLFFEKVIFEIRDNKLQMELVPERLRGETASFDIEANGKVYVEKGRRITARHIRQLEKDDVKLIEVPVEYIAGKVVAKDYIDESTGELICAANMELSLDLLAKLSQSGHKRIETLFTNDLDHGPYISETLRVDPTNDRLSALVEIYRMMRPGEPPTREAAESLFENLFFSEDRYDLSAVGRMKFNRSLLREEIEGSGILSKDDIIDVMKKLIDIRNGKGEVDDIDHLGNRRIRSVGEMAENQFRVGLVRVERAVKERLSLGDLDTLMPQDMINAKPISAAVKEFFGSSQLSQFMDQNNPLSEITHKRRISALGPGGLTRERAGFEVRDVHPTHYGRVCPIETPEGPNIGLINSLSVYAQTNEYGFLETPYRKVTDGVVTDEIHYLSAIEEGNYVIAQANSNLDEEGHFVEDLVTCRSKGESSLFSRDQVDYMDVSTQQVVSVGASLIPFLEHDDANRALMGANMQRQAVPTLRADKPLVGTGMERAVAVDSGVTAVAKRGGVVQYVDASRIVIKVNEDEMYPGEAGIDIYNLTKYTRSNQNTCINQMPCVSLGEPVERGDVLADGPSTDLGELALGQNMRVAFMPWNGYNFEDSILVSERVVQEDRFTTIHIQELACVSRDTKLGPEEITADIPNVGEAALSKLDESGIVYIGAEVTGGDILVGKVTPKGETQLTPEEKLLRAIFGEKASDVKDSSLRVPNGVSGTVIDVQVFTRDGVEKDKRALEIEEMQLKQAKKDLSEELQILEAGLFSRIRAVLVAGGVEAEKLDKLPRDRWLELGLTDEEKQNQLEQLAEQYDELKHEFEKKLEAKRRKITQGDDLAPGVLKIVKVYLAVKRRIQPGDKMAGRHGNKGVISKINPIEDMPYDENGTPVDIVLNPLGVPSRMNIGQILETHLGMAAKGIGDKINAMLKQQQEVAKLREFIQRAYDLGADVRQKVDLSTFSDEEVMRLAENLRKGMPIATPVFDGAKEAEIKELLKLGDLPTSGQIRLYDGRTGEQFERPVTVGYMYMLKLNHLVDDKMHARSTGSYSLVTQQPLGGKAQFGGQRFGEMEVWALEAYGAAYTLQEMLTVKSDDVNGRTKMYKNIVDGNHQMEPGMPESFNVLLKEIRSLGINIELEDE
T1 sequence (P0A7Z4 whole entry): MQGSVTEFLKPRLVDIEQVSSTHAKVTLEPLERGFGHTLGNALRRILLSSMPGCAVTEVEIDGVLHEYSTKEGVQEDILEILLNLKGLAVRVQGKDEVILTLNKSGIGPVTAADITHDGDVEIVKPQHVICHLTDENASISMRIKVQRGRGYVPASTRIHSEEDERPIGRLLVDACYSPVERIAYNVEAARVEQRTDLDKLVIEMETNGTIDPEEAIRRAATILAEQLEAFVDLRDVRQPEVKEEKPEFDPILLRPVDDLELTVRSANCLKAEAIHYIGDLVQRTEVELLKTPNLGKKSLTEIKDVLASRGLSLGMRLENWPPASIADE
Method: Thus, the different compounds tested are incubated in the presence of the core enzyme in a microassay dish on which the protein σ^70 is adsorbed, each well of the plate containing 1 μM of σ^70 during the adsorption phase.
The sigma70 proteins and the RNA polymerase of E. coli are expressed and purified under standard conditions (Burgess et al., Biochemistry, 1975, October 21; 14(21): 4634-8; Burgess R., Methods Enzymol 1996; 273: 145-9). The sigma70 protein is stored at −80° C. in (20 mM tris HCl pH 8; 5 M guanidine chloride; 10 mM β-mercaptoethanol; 50% glycerol) at a concentration of 100 μM. The core RNA polymerase is stored at −80° C. in (20 mM tris HCl pH 8, 100 mM KCl, 10 mM β-mercaptoethanol, 50% glycerol) at a concentration of 1 μM. The antipolymerase monoclonal antibody was obtained and purified by standard techniques (Short Protocols in Molecular Biology 2nd edition, John Wiley & Its) then chemically coupled to activated peroxidase (Boehringer Mannheim Biochemica ref. 1428861) according to the supplier's recommendations.
The test is based on the adsorption of sigma70 on an ELISA plate for 12 hours at 4° C. (6 pmoles of protein diluted in 100 μl of PBS per well, on Nunc-immuno plates, Maxisorp.). The protein dilutions and the buffers were optimized in order to reduce the non-specific bond of the RNA polymerase. After washing the plate with PBS 0.1% tween20, the plate is saturated with 200 μl of PBS 0.1% tween20, 1% BSA then incubated for 1 hour at ambient temperature with the RNA polymerase of E. coli (0.25 pmole of core RNA polymerase in 100 μl of PBS 0.1% tween 20, 1% BSA, 10 mM MgCl2) in the presence or in the absence of an optional inhibitor. […] The sigma70-RNA polymerase antibody complex is detected with a substrate of peroxidase, O-phenylenediamine, or another appropriate medium. […]
After three washings with 0.1% PBS-T (v/v), the peroxidase substrate is added (OPD, Biorad). The reaction takes place for 2 to 3 minutes in darkness then an absorbance measurement is carried out at 490 nm, after stopping the reaction with 50 μl of 4N H2SO4. […]

[2] = target: assembly of the α, β and β′ subunits (Escherichia coli, UniProt P0A7Z4+P0A8T7+P0A8V2); assay: specificity: assembly of RNA polymerase subunits; assay type: binding, E. coli
[3] = target: bond between an antibody, for example 11D11, and the RNA polymerase (Escherichia coli, UniProt P0A7Z4+P0A8T7+P0A8V2); assay: specificity: antibody-RNA polymerase bond; assay type: binding, E. coli
[4] = target: T2, bond between the RNA polymerase and the protein NusA (Escherichia coli, UniProt P0A7Z4+P0A8T7+P0A8V2); assay: NusA-RNA polymerase bond test (ELISA-type complexation test); assay type: binding, E. coli
T2 construct: polyhistidine (C); made in house; host or cells: NusA: BL21 lambda DE3 E. coli cells (printed 'BL211amdaDE3'), pet21-type vector
Method: More precisely, the different compounds tested (from the family of 5,988,031) are incubated in the presence of core enzyme in a microassay dish on which the protein NusA is adsorbed at a concentration equal to 20 μg/ml.
The gene coding for the protein NusA and comprising a C-terminal polyhistidine tag was cloned in a pet21-type vector. After transfection in BL211amdaDE3 cells, the cells are cultured in LB medium at 37° C. under vigorous stirring. The production of protein is induced by the addition of 1 mM IPTG. After 3 hours' culture, the cells are recovered by centrifugation and lysed according to (Burgess et al., Biochemistry, 1975 October 21; 14(21): 4634-8). After centrifugation, the supernatant is passed over an Ni NTA agarose column (Quiagen) according to the supplier's recommendations. The protein NusA is stored at −80° C. in (20 mM tris HCl pH 8; 5 M guanidine chloride; 10 mM β-mercaptoethanol; 50% glycerol) at a concentration of 100 μM.
The test is based on the adsorption of NusA on an ELISA plate for 12 hours at 4° C. (6 pmoles of protein diluted in 100 μl of PBS per well on Nunc-immuno plates, Maxisorp.). The dilutions of protein and the buffers were optimized in order to reduce the non-specific bond of the RNA polymerase. […] The sigma70-RNA polymerase-antibody complex is detected with a substrate of peroxidase, O-phenylenediamine, or another appropriate medium. […]

E. coli TG1 cells = assay: inhibition of growth in microassay dish; assay type: cell-based; details: FIG. 4; optical density at 650 nm after 12 hours at 37° C.
Method: FIG. 4 corresponds to the inhibition of the growth of E. coli TG1 cells by the abovementioned compound 5,988,031. This figure represents the optical density measured at 650 nm (y-axis) with reference to the concentration of the compound 5,988,031 in μg/ml (x-axis).
The E. coli TG1 cells, diluted according to the protocol described hereafter in the experimental part, are incubated with increasing concentrations of the compound 5,988,031. The growth of the bacteria is measured at 650 nm after incubation for 12 hours at 37° C. under stirring in a microassay dish.
The various compounds isolated are tested for their TG1 E. coli bacteria growth-inhibiting properties. Cells in stationary phase are diluted to {fraction (1/10,000)} in LB medium (tryptone 10 g; yeast extract 5 g; NaCl 5 g) and are transfected in a microassay dish (200 μl/well). The molecules are added to 10% DMSO, at a final concentration of 100 mg/ml. […] After incubation overnight at 37° C. under stirring, the optical density of each well at 650 nm is measured.

M. Luteus = assay: antibiotic activity on other strains tested; assay type: cell-based; details: concentration not given
[5] = other strains tested, concentration not given

With `O=C(/C=C/c1ccc(-c2ccc([N+](=O)[O-])cc2)o1)c1cc2ccccc2o1` [5,761,890] the “diameter of inhibition, S epidermidis” value (S epidermidis; 500 μg/ml) was “negative”, the “diameter of inhibition, K12” value (E. coli K12; 500 μg/ml) was “negative” and the “diameter of inhibition, S aureus” value (S aureus; 500 μg/ml) was “negative”.
For `O=C(/C=C/c1ccc(-c2cccc([N+](=O)[O-])c2)o1)c1cc2ccccc2o1` [5,768,818], the “diameter of inhibition, S epidermidis” value (S epidermidis; 500 μg/ml) was “negative”, the “diameter of inhibition, K12” value (E. coli K12; 500 μg/ml) was “negative” and the “diameter of inhibition, S aureus” value (S aureus; 500 μg/ml) was “negative”.
`COc1ccc(-c2ccc(/C=C/C(=O)c3cc4ccccc4o3)o2)cc1` [compound 5,858,445] was tested, and the “inhibition of the bond between σ^70 and the RNA polymerase (in words)” value [1] was “most active”, the “diameter of inhibition, S epidermidis” value (S epidermidis; 500 μg/ml) was 4.2 mm and the “diameter of inhibition, K12” value (E. coli K12; 500 μg/ml) was “negative”. For the same compound, the “diameter of inhibition, S aureus” value (S aureus; 500 μg/ml) was 4.2 mm.
In the case of `Cc1ccc(C)n1-c1ccc(OCC(=O)O)cc1` [compound 5,988,031], the “inhibition of the bond between σ^70 and the RNA polymerase (in words)” value [1] is reported as “most active; also recorded: inhibits”, the IC50 ([1]; FIG. 1, σ^70 adsorbed on plate, core enzyme, antibody 11D11-peroxidase, read-out: concentration giving 50% inhibition of the bond between σ^70 and the RNA polymerase (converted)) is reported as roughly 20.4 µM and the “inhibition of the assembly of the α, β and β′ subunits (in words)” value [2] is reported as “not”. For the same compound, the “inhibition of the bond between an antibody (11D11) and the RNA polymerase (in words)” value [3] was “not”, the “inhibition of the bond between NusA and the RNA polymerase (in words)” value [4] was “inhibits” and the “activity on E. coli K12 (in words)” value (E. coli K12; [5]) was “not active”. For the same compound, the “activity on S. aureus (in words)” value (S aureus; [5]) was “not active”, the “inhibition of the growth of E. coli TG1 cells (in words)” value (E. coli TG1 cells) was “inhibits” and the “activity on M. Luteus (in words)” value (M. Luteus) was “not active”.
In the case of `CN[C@H](CC(C)C)C(=O)N[C@H]1C(=O)N[C@@H](CC(N)=O)C(=O)N[C@H]2C(=O)N[C@H]3C(=O)N[C@H](C(=O)N[C@H](C(=O)O)c4cc(O)cc(O)c4-c4cc3ccc4O)[C@H](O)c3ccc(c(Cl)c3)Oc3cc2cc(c3O[C@@H]2O[C@H](CO)[C@@H](O)[C@H](O)[C@H]2O[C@H]2C[C@](C)(N)[C@H](O)[C@H](C)O2)Oc2ccc(cc2Cl)[C@H]1O` [vancomycin, reference compound], the “diameter of inhibition, S epidermidis” value (S epidermidis; 50 μg/ml) is reported as 5 mm, the “diameter of inhibition, K12” value (E. coli K12; 50 μg/ml) is reported as “negative” and the “diameter of inhibition, S aureus” value (S aureus; 50 μg/ml) is reported as 5 mm.
